{
  "source": "patent US20160106727A1",
  "about": "“COMPOSITION AND METHOD FOR THE TREATMENT OF NEURODEGENERATION” (Wright State University, priority 2011, published 2016)",
  "tested_on": "neurogenesis in the subventricular zone of the lateral brain ventricles",
  "experiment": "Adult neurogenesis by doublecortin staining after two weeks of daily oral treatment",
  "assay_type": "in vivo, male Wistar rats",
  "details": "for Fold increase in neurogenesis over vehicle control: anterior subventricular zone",
  "key": {"[1]": {"details": "doublecortin staining, two weeks daily oral"}},
  "from_the_text": "Animals, more specifically, male Wistar rats were used to measure differences in neurogenesis in the subventricular zone of the lateral brain ventricles in response to the various drug treatments using doublecortin primary antibody to measure neurogenesis.\nThe male Wistar rats aged approximately one year old were used, wherein a doublecortin antibody was used to measure neurogenesis with a horseradish peroxidase labeled secondary antibody developed with 3,3′-Diaminobenzidine (DAB).\nWherein, the male Wistar rats were given voluntary oral drug treatments daily for a two week period.\nFor example, four groups of Wistar rats, n=6 in each, were given a vehicle control or one of three drug compositions which are voluntary orally administered for a period of two weeks, euthanized and the brain dissected for immunohistochemistry.\nSpecifically, all dissected animal brains were blocked and post fixed for 24 hours in 4% paraformaldehyde in PBS at 5° C. The brains were then put into 30% sucrose in PBS at 5° C. for at least 3 days and then cut on a cryostat into 50 micron coronal sections. The sections were collected into PBS, blocked for one hour with PBS containing 1% Tween and 3% secondary antibody host serum, then reacted with doublecortin primary antibody, 1:500 dilution in blocking solution. […] Free-floating sections were washed with 3 washes of PBS containing 0.1% Tween, then incubated in the dark with secondary antibodies, Cy3-labeled Donkey anti-rabbit IgG, FITC-labeled Donkey anti-sheep IgG; Jackson Immunology, at a 1:100 dilution in blocking solution for 2.5 hours at room temperature or a Vector ABC elite horseradish peroxidase DAB kit was used according to kit instructions, mounting the final washed sections on gel-subbed slides. Sections with fluorescent secondary antibodies were washed three times with PBS containing 0.1% Tween and then the sections were mounted on gel-subbed slides.\nANOVA (analysis of variance) was used for statistical analysis.",
  "data": [
    {"smiles": "CNCCC(Oc1ccc(C(F)(F)F)cc1)c1ccccc1", "note": "(stereo not shown) [fluoxetine]", "values": [
      {"measurement": "Fold increase in neurogenesis over vehicle control", "setting": "[1]", "value": "approximately 10 fold"},
      {"measurement": "Fold increase in neurogenesis over vehicle control", "setting": "doublecortin staining, two weeks daily oral, listed as Fluoxetine", "value": 10, "unit": "fold"},
      {"measurement": "Neurogenesis compared to vehicle control (in words)", "setting": "[1]", "value": "significant increase in neurogenesis"},
      {"measurement": "Area of doublecortin staining (mean)", "setting": "subventricular zone of anterior lateral ventricles, daily voluntary oral treatment for two weeks, FIG. 1E", "value": 0.5727, "unit": "mm^2"}
    ]}
  ]
}
